Literature values as cited in article PMC8747035, “Design, Synthesis, and Biological Evaluation of 5,6,7,8-Tetrahydrobenzo[4,5]thieno[2,3-d]pyrimidines as Microtubule Targeting Agents” (Molecules, 2022).

Columns and labels:
[1] = tested on: MDA-MB-435 cells; conditions: SRB assay, antiproliferative; read-out: IC50 ± SD in MDA-435 Cells; cited from earlier work
[2] = tested on: A-10 cells; conditions: read-out: EC50 for Microtubule Depolymerization in A-10 Cells; cited from earlier work
[3] = tested on: Bovine brain tubulin; conditions: read-out: Inhibition of Tubulin Assembly IC50 ± SD; cited from earlier work
[4] = tested on: tubulin; conditions: compound at 5 μM; cited from earlier work
[5] = tested on: HeLa cells; conditions: read-out: IC50 ± SD in HeLa; cited from earlier work
[6] = tested on: HeLa WTβIII cells; conditions: read-out: IC50 ± SD in HeLa WTβ3; cited from earlier work
[7] = tested on: SK-OV-3 cells; conditions: read-out: IC50 ± SD in SK-OV-3 Cells; cited from earlier work
[8] = tested on: SK-OV-3 MDR1-M6/6 cells; conditions: read-out: IC50 ± SD in SK-OV-3 MDR1-M6/6 Cells; cited from earlier work

SMILES | IC50 [1] [nM] | EC50 [2] [nM] | IC50 [3] [nM] | Inhibition of Colchicine Binding (% inhibition ± SD) [4] [%] | IC50 [5] [nM] | IC50 [6] [nM] | IC50 [7] [nM] | IC50 [8] [nM]
COc1ccc(N(C)c2nc(N)nc3[nH]c4ccccc4c23)cc1 [Compound 1] | 14.7 ± 1.5 | 130 | 1400 ± 7 | 84 ± 0.50 | 21.3 ± 2.2 | 21.4 ± 3.5 | 27.6 ± 1.8 | –
COc1ccc(N(C)c2ncnc3[nH]c4ccccc4c23)cc1 [Compound 3] | 130 ± 7.8 | 1200 | 2300 ± 400 | 62.0 ± 4.0 | 142 ± 8.1 | 99.5 ± 12 | 173 ± 8.6 | 224 ± 21
CSc1ccc(N(C)c2nc(N)nc3[nH]c4ccccc4c23)cc1 [Compound 2] | 89.1 ± 10 | 1100 | 2300 ± 300 | 67.0 ± 5.0 | 118 ± 13 | 78.4 ± 4 | 156 ± 16 | 160 ± 15
